PubChem BioAssay (NCI)
Where “and” joins values, the source holds several entries; their conditions need not be identical. Equal entries are not always repeated.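 Cells were grown in 96-well plates and exposed to each compound for 48 hours at five concentrations; endpoints were interpolated linearly between bracketing concentrations, or set to the highest concentration if not reached. GI50 marks 50% less growth. TGI marks complete inhibition of growth.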

Legend:
Assay in all cases: growth of human tumour cells (NCI), 48 h
DLD-1 colon = system: DLD-1 colon
DMS 114 small cell lung = system: DMS 114 small cell lung
HOP-18 NSCLC = system: HOP-18 NSCLC
HS 578T breast = system: HS 578T breast
LXFL 529 NSCLC = system: LXFL 529 NSCLC
M19-MEL melanoma = system: M19-MEL melanoma
MDA-N = system: MDA-N
RXF-631 renal = system: RXF-631 renal
SNB-78 CNS = system: SNB-78 CNS

Structure (SMILES) | TGI (DLD-1 colon) | TGI (DMS 114 small cell lung) | TGI (HOP-18 NSCLC) [nM] | TGI (HS 578T breast) | TGI (LXFL 529 NSCLC) [nM] | TGI (M19-MEL melanoma) [nM] | TGI (MDA-N) | TGI (RXF-631 renal) [µM] | TGI (SNB-78 CNS) [µM] | GI50 (DLD-1 colon) | GI50 (DMS 114 small cell lung) | GI50 (HOP-18 NSCLC) [nM] | GI50 (LXFL 529 NSCLC) | GI50 (M19-MEL melanoma) | GI50 (RXF-631 renal) | GI50 (SNB-78 CNS) | GI50 (HS 578T breast) [µM] | GI50 (MDA-N) [µM]
CN/N=C(/CCN1CCCC1)CC(c1ccccc1)c1c(O)c2ccccc2oc1=O (configuration not stated) | > 100000 nM | > 100000 nM | > 100000 | > 100 µM | > 100000 | > 100000 | > 100 µM | > 100 | > 100 | – | – | – | – | – | – | – | – | –
C[N+](C)(C)CC1CCCC(C[N+](C)(C)C)C1=O (configuration not stated) | 386 nM | 3490 nM | 1000 | 33.6 µM | 392 | 2330 | 9.44 µM | 47.4 | 5.88 | – | – | – | – | – | – | – | – | –
CC(=O)OC[C@]12CC[C@H]3[C@@H](C[C@H]4O[C@]45[C@@H](O)C=CC(=O)[C@]35C)[C@@H]1CC[C@@H]2[C@H](C)[C@H]1CC(C)=C(C)C(=O)O1 | 649 nM and 310 nM | 823 nM and 1120 nM | 2420 | – | 824 | 2320 | – | 2.74 | 1.84 | 273 nM and 129 nM | 324 nM and 357 nM | 1050 | 347 nM and 219 nM | 598 nM and 515 nM | 679 nM and 987 nM | 453 nM and 321 nM | – | –
CCC[CH2][Sn]1([CH2]CCC)[O]C(=O)C(C(C)C)N=Cc2ccccc2[O]1 (configuration not stated) | > 100000 nM | 229 nM | 1920 | – | 200 | 1080 | – | 0.308 | 1.23 | 499 nM | 91.8 nM | 668 | 61.7 nM | 232 nM | 166 nM | 227 nM | – | –
CCC1(O)C(=O)OCc2c1cc1n(c2=O)Cc2cc3ccc(C=O)cc3nc2-1 (configuration not stated) | > 100000 nM | 20500 nM | > 100000 | 50 µM and > 100 µM | > 100000 | 19800 | 23.7 µM and 36.4 µM | 31.7 | 98.2 | – | – | – | – | – | – | – | 27 | 3.9
